Assay results: paper PMC6328932, “Procaspase activating compound 1 controls tetracycline repressor-regulated gene expression system” (Bioscience Reports, 2019)

Legend:
[1] = molecular target: TetR (TetR(B), tetracycline repressor) (Escherichia coli, UniProt P04483); assay: SPR, TetR immobilised on CMDH chip by EDC/NHS coupling; assay type: binding
TetR(B) = TetR(B) (Escherichia coli? (TetR(B) cDNA …, UniProt P04483 1-207)); assay: EMSA; complex appears from 0.5 uM TetR with 0.5 uM tetO; no Dox; EMSA: 20 mM Tris-HCl pH 8.0, 50 mM NaCl, 1 mM MgCl2, 0.1 mM DTT, 15 min at room temperature; 8% PAGE in 90 mM Tris, 90 mM boric acid, 5 mM MgCl2; conditions: protein: recombinant; (cloned NdeI-XhoI; Ni-NTA purified); chain copies: 2; label: none (ethidium bromide stain); blunt
TetR(B) (Escherichia coli?, sequence (P04483 whole entry): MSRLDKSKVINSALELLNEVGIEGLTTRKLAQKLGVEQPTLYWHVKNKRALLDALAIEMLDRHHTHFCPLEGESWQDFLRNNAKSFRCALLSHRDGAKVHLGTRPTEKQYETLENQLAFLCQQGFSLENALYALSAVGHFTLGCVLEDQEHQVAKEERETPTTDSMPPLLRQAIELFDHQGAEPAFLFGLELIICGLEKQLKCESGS

TetR (TetR(B), tetracycline repressor), sequence (P04483 whole entry, looked up): as the sequence (P04483 whole entry) above

| Molecule | Kd [1] [µM] | binding result (TetR(B)) |
| --- | --- | --- |
| C=CCc1cccc(C=NNC(=O)CN2CCN(Cc3ccccc3)CC2)c1O [PAC-1] | 260 | – |
| tetO (dsDNA) DNA 1: CCTAATTTTTGTTGACACTCTATCATTGATAGAGTTATTTTACCACTC DNA 2: GAGTGGTAAAATAACTCTATCAATGATAGAGTGTCAACAAAAATTAGG | – | binds |
